Results: PubChem BioAssay AID248 (DTP/NCI, 2004)
Inconclusive results and toxic doses are left out.

Test system: L1210 leukemia ip in BDF1 mice, survival T/C
Assay: NCI In Vivo Anticancer Drug Screen. Data for tumor model L1210 Leukemia (intraperitoneal) in B6D2F1 (BDF1) mice
Conditions: higher = longer survival
Summary of the method: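 Ratio derived from survival: compound-dosed mice over vehicle-dosed mice, all bearing a transplantable tumor.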

How did the T/C (endpoint: mean survival time, dose: 25.0 mg/kg/injection, schedule: Q04DX003 (ip), vehicle: saline) turn out when `C[C@@H](CN1CC(=O)NC(=O)C1)N1CC(=O)NC(=O)C1` was run?
The T/C was 116 % of control.

And the T/C (endpoint: mean survival time, dose: 25.0 mg/kg/injection, schedule: Q04DX003 (ip), vehicle: water)?
The T/C was 111 % of control.

What about the T/C (endpoint: mean survival time, dose: 32.0 mg/kg/injection, schedule: Q04DX003 (oral), vehicle: saline) of the same compound?
Its T/C is 117 % of control.

And the T/C (endpoint: mean survival time, dose: 50.0 mg/kg/injection, schedule: Q04DX003 (ip), vehicle: saline)?
Its T/C is 116 % of control.

What about the T/C (endpoint: mean survival time, dose: 50.0 mg/kg/injection, schedule: Q04DX003 (ip), vehicle: water) of the same compound?
Its T/C is 100 % of control.

And the T/C (endpoint: mean survival time, dose: 64.0 mg/kg/injection, schedule: Q04DX003 (oral), vehicle: saline)?
The T/C was 151 % of control.

And the T/C (endpoint: mean survival time, dose: 100.0 mg/kg/injection, schedule: Q04DX003 (ip), vehicle: saline)?
The T/C was 115 % of control.

And the T/C (endpoint: mean survival time, dose: 128.0 mg/kg/injection, schedule: Q04DX003 (oral), vehicle: saline)?
Its T/C is 180 % of control.

What about the T/C (endpoint: mean survival time, dose: 256.0 mg/kg/injection, schedule: Q04DX003 (oral), vehicle: saline) of the same compound?
Its T/C is 180 % of control.

What about the T/C (endpoint: mean survival time, dose: 400.0 mg/kg/injection, schedule: Q04DX003 (ip), vehicle: saline) of the same compound?
Its T/C is 150 % of control.

And the T/C (endpoint: mean survival time, dose: 400.0 mg/kg/injection, schedule: Q04DX003 (ip), vehicle: water)?
Its T/C is 158 % of control.

And the T/C (endpoint: mean survival time, dose: 512.0 mg/kg/injection, schedule: Q04DX003 (oral), vehicle: saline)?
Its T/C is 155 % of control.

And the T/C (endpoint: mean survival time, dose: 800.0 mg/kg/injection, schedule: Q04DX003 (ip), vehicle: saline)?
The T/C was 187 % of control.

And the T/C (endpoint: median survival time, dose: 8.0 mg/kg/injection, schedule: Q01DX009 (sc), vehicle: saline)?
Its T/C is 118 % of control.

What about the T/C (endpoint: median survival time, dose: 8.0 mg/kg/injection, schedule: Q03HX008 (ip), vehicle: saline) of the same compound?
The T/C was 152 % of control.

And the T/C (endpoint: median survival time, dose: 8.0 mg/kg/injection, schedule: Q03HX016 (ip), vehicle: saline)?
Its T/C is 173 % of control.

And the T/C (endpoint: median survival time, dose: 8.0 mg/kg/injection, schedule: Q03HX024 (ip), vehicle: saline)?
Its T/C is 263 % of control.

And the T/C (endpoint: median survival time, dose: 16.0 mg/kg/injection, schedule: Q01DX009 (sc), vehicle: saline)?
Its T/C is 119 % of control.

What about the T/C (endpoint: median survival time, dose: 16.0 mg/kg/injection, schedule: Q03HX008 (ip), vehicle: saline) of the same compound?
The T/C was 152 % of control.

And the T/C (endpoint: median survival time, dose: 16.0 mg/kg/injection, schedule: Q03HX016 (ip), vehicle: saline)?
The T/C was 186 % of control.

And the T/C (endpoint: median survival time, dose: 16.0 mg/kg/injection, schedule: Q03HX024 (ip), vehicle: saline)?
Its T/C is 300 % of control.

What about the T/C (endpoint: median survival time, dose: 32.0 mg/kg/injection, schedule: Q03HX008 (ip), vehicle: saline) of the same compound?
The T/C was 155 % of control.

And the T/C (endpoint: median survival time, dose: 32.0 mg/kg/injection, schedule: Q03HX016 (ip), vehicle: saline)?
The T/C was 193 % of control.

What about the T/C (endpoint: median survival time, dose: 32.0 mg/kg/injection, schedule: Q03HX024 (ip), vehicle: saline) of the same compound?
Its T/C is 113 % of control.

What about the T/C (endpoint: median survival time, dose: 64.0 mg/kg/injection, schedule: Q01DX001 (ip), vehicle: saline) of the same compound?
Its T/C is 108 % of control.

And the T/C (endpoint: median survival time, dose: 64.0 mg/kg/injection, schedule: Q01DX009 (sc), vehicle: saline)?
Its T/C is 159 % of control.

And the T/C (endpoint: median survival time, dose: 64.0 mg/kg/injection, schedule: Q03HX008 (ip), vehicle: saline)?
Its T/C is 158 % of control.

And the T/C (endpoint: median survival time, dose: 64.0 mg/kg/injection, schedule: Q03HX024 (ip), vehicle: saline)?
The T/C was 94 % of control.

What about the T/C (endpoint: median survival time, dose: 64.0 mg/kg/injection, schedule: Q04DX003 (ip), vehicle: saline) of the same compound?
Its T/C is 110 % of control.

What about the T/C (endpoint: median survival time, dose: 64.0 mg/kg/injection, schedule: Q04DX003 (sc), vehicle: saline) of the same compound?
The T/C was 106 % of control.

And the T/C (endpoint: median survival time, dose: 64.0 mg/kg/injection, schedule: Q08DX002 (ip), vehicle: saline)?
Its T/C is 104 % of control.

And the T/C (endpoint: median survival time, dose: 128.0 mg/kg/injection, schedule: Q01DX001 (ip), vehicle: saline)?
Its T/C is 106 % of control.

What about the T/C (endpoint: median survival time, dose: 128.0 mg/kg/injection, schedule: Q03HX008 (ip), vehicle: saline) of the same compound?
Its T/C is 152 % of control.

What about the T/C (endpoint: median survival time, dose: 128.0 mg/kg/injection, schedule: Q03HX016 (ip), vehicle: saline) of the same compound?
The T/C was 107 % of control.

And the T/C (endpoint: median survival time, dose: 128.0 mg/kg/injection, schedule: Q03HX024 (ip), vehicle: saline)?
Its T/C is 86 % of control.

And the T/C (endpoint: median survival time, dose: 128.0 mg/kg/injection, schedule: Q04DX003 (ip), vehicle: saline)?
The T/C was 118 % of control.

And the T/C (endpoint: median survival time, dose: 128.0 mg/kg/injection, schedule: Q04DX003 (sc), vehicle: saline)?
The T/C was 109 % of control.

And the T/C (endpoint: median survival time, dose: 256.0 mg/kg/injection, schedule: Q01DX001 (ip), vehicle: saline)?
The T/C was 109 % of control.

And the T/C (endpoint: median survival time, dose: 256.0 mg/kg/injection, schedule: Q04DX003 (ip), vehicle: saline)?
Its T/C is 118 % of control.

And the T/C (endpoint: median survival time, dose: 256.0 mg/kg/injection, schedule: Q08DX002 (ip), vehicle: saline)?
Its T/C is 121 % of control.

And the T/C (endpoint: median survival time, dose: 512.0 mg/kg/injection, schedule: Q01DX001 (ip), vehicle: saline)?
The T/C was 111 % of control.

And the T/C (endpoint: median survival time, dose: 512.0 mg/kg/injection, schedule: Q04DX003 (sc), vehicle: saline)?
The T/C was 182 % of control.

What about the T/C (endpoint: median survival time, dose: 1024.0 mg/kg/injection, schedule: Q04DX003 (ip), vehicle: saline) of the same compound?
Its T/C is 186 % of control.

And the T/C (endpoint: median survival time, dose: 1024.0 mg/kg/injection, schedule: Q04DX003 (sc), vehicle: saline)?
Its T/C is 236 % of control.

What about the T/C (endpoint: median survival time, dose: 1024.0 mg/kg/injection, schedule: Q08DX002 (ip), vehicle: saline) of the same compound?
Its T/C is 150 % of control.
